The results in this text go back to US10940139B2, “Compounds that interact with the Ras superfamily for the treatment of cancers, inflammatory diseases, rasopathies, and fibrotic disease” (Shy Therapeutics LLC, priority 2017, dated 2021).

Read-outs that look alike come from different tables or passages of the source.

What all share (test): Ras GTP binding domain inhibition assay (labeled GTP)
Assay [1] deals with KRas G12C/Q61H double mutant (Homo sapiens (Human), UniProt P01116, G12C/Q61H). The conditions noted are these: 20 μM compound. Summed up:
(§1)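 Labelled-GTP binding: plate-captured His-KRas protein was pre-exposed to compound for 3 h at room temperature (single 20 μM point or dilution series, 1% DMSO, Tris pH 7.5/MgCl2/DTT buffer). Cy3- or Cy5-GTP was then added for 45 min. Washed wells were read for retained fluorescence to give inhibition or IC50.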

In assay [2] the target is KRas G12D/Q61H double mutant (Homo sapiens (Human), UniProt P01116, G12D/Q61H). The settings on record: for inhibition at 20 µM: 20 μM compound. Summed up:
as §1

A further assay concerns the target KRas Q61H mutant (Homo sapiens (Human), UniProt P01116, Q61H). The settings on record: 20 μM compound. Summed up: as §1
Setting [3] is: read-out: % Inhibition at 20 μM KRas G12C Q61H.
Setting [4] is: read-out: % Inhibition at 20 μM KRas G12D Q61H.
The mark [5] stands for this setting: read-out: % Inhibition at 20 μM KRas Q61H.
The mark [6] stands for this setting: KRas G12C/Q61H double mutant, read-out: % Inhibition at 20 μM of K-Ras mutant and wild-type protein, KRas G12C Q61H.
Setting [7] is: KRas G12D/Q61H double mutant, read-out: % Inhibition at 20 μM of K-Ras mutant and wild-type protein, KRas G12D Q61H.
[8] abbreviates: KRas Q61H, read-out: % Inhibition at 20 μM of K-Ras mutant and wild-type protein, KRas Q61H.

Sequence of KRas G12C/Q61H double mutant (P01116-2 other isoform, or with tags, fused parts or gaps G12C/Q61H): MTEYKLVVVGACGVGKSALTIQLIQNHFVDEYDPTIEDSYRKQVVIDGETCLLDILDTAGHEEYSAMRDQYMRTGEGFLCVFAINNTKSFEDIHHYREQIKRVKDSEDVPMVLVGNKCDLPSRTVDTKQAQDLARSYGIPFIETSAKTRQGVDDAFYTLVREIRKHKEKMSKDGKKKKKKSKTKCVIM
Sequence of KRas G12D/Q61H double mutant (P01116-2 other isoform, or with tags, fused parts or gaps G12D/Q61H): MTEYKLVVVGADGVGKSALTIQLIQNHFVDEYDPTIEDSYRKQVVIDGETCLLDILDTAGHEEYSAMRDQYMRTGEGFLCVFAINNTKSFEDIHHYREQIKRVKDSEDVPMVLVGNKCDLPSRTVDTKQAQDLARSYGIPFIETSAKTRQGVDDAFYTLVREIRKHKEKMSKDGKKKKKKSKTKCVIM
Sequence of KRas Q61H mutant (P01116-2 other isoform, or with tags, fused parts or gaps Q61H): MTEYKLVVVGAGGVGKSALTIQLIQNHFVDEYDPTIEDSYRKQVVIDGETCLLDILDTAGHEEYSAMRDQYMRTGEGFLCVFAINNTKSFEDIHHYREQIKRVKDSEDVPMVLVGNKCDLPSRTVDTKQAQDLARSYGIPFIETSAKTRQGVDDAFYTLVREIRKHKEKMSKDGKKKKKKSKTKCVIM

What is called inhibition is how much of the control response was suppressed. For the compound `CC(C(=O)Nc1nc(-c2ccccn2)nc2sccc12)c1ccc(C#N)cc1` (stereo not shown) [drawing 2798], the results for the inhibition at 20 µM (in assay [1] (setting [3]); in assay [2] (setting [4]); at KRas Q61H mutant (setting [5])) were 76 to 100%, 1 to 25% and 76 to 100%, respectively.
On to `Cc1sc2c(O)nc(-c3ccccn3)nc2c1Br` [drawing 3522], for which the values for the inhibition at 20 µM (in assay [1] (setting [6]); in assay [2] (setting [7]); at KRas Q61H mutant (setting [8])) were 25 to 50%, 25 to 50% and 1 to 25%, respectively.
For `COc1cccc(N2CCN(C(=O)c3csc4c(O)nc(-c5ccccn5)nc34)CC2)c1` [drawing 2713], the inhibition at 20 µM in assay [1] (setting [3]) lay within 51 to 75%; in assay [2] (setting [4]), 1 to 25%; at KRas Q61H mutant (setting [5]), 51 to 75%.
`Nc1nc(O)c2sc(-c3cccc(C(=O)N4CCC(O)C4)c3)cc2n1` (stereo not shown) [drawing 3543]: the inhibition at 20 µM (in assay [1] (setting [6]); in assay [2] (setting [7]); on KRas Q61H mutant (setting [8])) was 1 to 25% in each case.
On to `COc1cc(CCN(C)C(=O)c2csc3nc(-c4ccccn4)nc(N4CCOCC4)c23)ccn1` [drawing 2781], for which the inhibition at 20 µM in assay [1] (setting [3]) is 25 to 50%; in assay [2] (setting [4]) it was 0%; at KRas Q61H mutant (setting [5]), 25 to 50%.
`Oc1nc(-c2ccccn2)nc2c(-c3ccc(Cl)c(Cl)c3)csc12` [drawing 3463]: the inhibition at 20 µM in assay [1] (setting [6]) is 1 to 25%; in assay [2] (setting [7]), 25 to 50%; on KRas Q61H mutant (setting [8]), 25 to 50%.
Consider `COCCCCN(C)C(=O)c1csc2nc(-c3ccccn3)nc(N3CCOCC3)c12` [drawing 2790], for which the inhibition at 20 µM in assay [1] (setting [3]) lay within 25 to 50%; in assay [2] (setting [4]), 1 to 25%; on KRas Q61H mutant (setting [5]) it was 51 to 75%.
Consider `Nc1nc(O)c2sc(-c3cccc(C(=O)NCc4ncc[nH]4)c3)cc2n1` [drawing 3545], for which the inhibition at 20 µM is 1 to 25% in assay [1] (setting [6]), 0% in assay [2] (setting [7]) and 0% on KRas Q61H mutant (setting [8]).
As for `O=C(NCCc1cnc(O)nc1)c1csc2nc(-c3ccccn3)nc(N3CCS(=O)(=O)CC3)c12` [drawing 2854], the results for the inhibition at 20 µM (in assay [1] (setting [3]); in assay [2] (setting [4]); on KRas Q61H mutant (setting [5])) were 1 to 25%, 25 to 50% and 25 to 50%, respectively.
For the compound `COc1ccc(CCN(C)C(=O)c2csc3nc(-c4ccccn4)nc(N4CCOCC4)c23)cn1` [drawing 2746], the inhibition at 20 µM is 25 to 50% in assay [1] (setting [3]), 0% in assay [2] (setting [4]) and 25 to 50% on KRas Q61H mutant (setting [5]).
With `COCCCCNC(=O)c1csc2nc(-c3ccccn3)nc(N3CCOCC3)c12` [drawing 2789], the inhibition at 20 µM was in the range of 1 to 25% in assay [1] (setting [3]), 1 to 25% in assay [2] (setting [4]) and 25 to 50% on KRas Q61H mutant (setting [5]).
Regarding `Nc1nc(-c2ccccn2)nc2scc(Br)c12` [drawing 2894], the inhibition at 20 µM in assay [1] (setting [3]) lay within 25 to 50%; in assay [2] (setting [4]) it was 25 to 50%; on KRas Q61H mutant (setting [5]) it was 51 to 75%.
With `Cc1c(C(=O)N2CCN(c3ccccc3)CC2)sc2c(O)nc(-c3ccccn3)nc12` [drawing 3483], the inhibition at 20 µM (in assay [1] (setting [6]); in assay [2] (setting [7]); on KRas Q61H mutant (setting [8])) was 51 to 75% throughout.
As to `O=C(NCCc1ccncn1)c1csc2nc(-c3ccccn3)nc(N3CCOCC3)c12` [drawing 3500], the figures for the inhibition at 20 µM (in assay [1] (setting [6]); in assay [2] (setting [7]); on KRas Q61H mutant (setting [8])) were 25 to 50%, 25 to 50% and 51 to 75%, respectively.
As to `O=C(c1csc2c(O)nc(-c3ccccn3)nc12)N1CCN(Cc2ccc(O)cc2)CC1` [drawing 2764], the inhibition at 20 µM in assay [1] (setting [3]) is 25 to 50%; in assay [2] (setting [4]), 1 to 25%; on KRas Q61H mutant (setting [5]) it was 25 to 50%.
`Oc1nc(-c2ccccn2)nc2c(-c3ccc(OC4CCCCC4)cc3)csc12` [drawing 2887]: the inhibition at 20 µM (in assay [1] (setting [3]); in assay [2] (setting [4]); at KRas Q61H mutant (setting [5])) was 25 to 50% throughout.
With `O=C(c1csc2c(O)nc(-c3ccccn3)nc12)N1CCN(Cc2ccccc2)CC1` [drawing 2762], the inhibition at 20 µM was 51 to 75% in assay [1] (setting [3]), 25 to 50% in assay [2] (setting [4]) and 76 to 100% on KRas Q61H mutant (setting [5]).
In the same order, the values of `Oc1nc(-c2ccccn2)nc2c(-c3ccc(CN4CCOCC4)cc3)csc12` [drawing 2882] are 25 to 50%, 25 to 50% and 25 to 50%.
In the case of `Oc1nc(-c2ccccn2)nc2c(-c3cc(C(F)(F)F)ccc3F)csc12` [drawing 3465], the inhibition at 20 µM (in assay [1] (setting [6]); in assay [2] (setting [7]); at KRas Q61H mutant (setting [8])) was 1 to 25% each time.
For the compound `Oc1nc(-c2ccccn2)nc2c(-c3ccccc3)csc12` [drawing 2694], the values for the inhibition at 20 µM (in assay [1] (setting [3]); in assay [2] (setting [4]); at KRas Q61H mutant (setting [5])) were 25 to 50%, 25 to 50% and 51 to 75%, respectively.
As to `COCCCCNC(=O)c1csc2nc(-c3ccccn3)nc(N(CCOC)CCOC)c12` [drawing 2793], the figures for the inhibition at 20 µM (in assay [1] (setting [3]); in assay [2] (setting [4]); on KRas Q61H mutant (setting [5])) were 25 to 50%, 0% and 51 to 75%, respectively.
Take `Cc1c(-c2csc3c(O)nc(-c4ccccn4)nc23)cnn1C` [drawing 3505]: the inhibition at 20 µM in assay [1] (setting [6]) lay in the range of 51 to 75%; in assay [2] (setting [7]) it was 51 to 75%; at KRas Q61H mutant (setting [8]), 76 to 100%.
Consider `COCCCCNC(=O)c1csc2nc(-c3ccccn3)nc(N3CCS(=O)(=O)CC3)c12` [drawing 2826], for which the inhibition at 20 µM (in assay [1] (setting [3]); in assay [2] (setting [4]); on KRas Q61H mutant (setting [5])) was 1 to 25% in each case.
A word on the IC50: it is the concentration needed to halve the response being measured. Consider `CCn1nc(C)cc1-c1csc2c(O)nc(-c3ccccn3)nc12` [drawing 2903], for which the inhibition at 20 µM (in assay [1] (setting [3]); in assay [2] (setting [4]); on KRas Q61H mutant (setting [5])) was 51 to 75% throughout. Further, the IC50 in assay [2] (serial dilution, read-out: KRas G12D Q61H (classes E-H, IC50)) was in the range of 11 to 30 µM.
Regarding `COc1ncc(CCNC(=O)c2csc3nc(-c4ccccn4)nc(N4CCOCC4)c23)cn1` [drawing 2748], the inhibition at 20 µM in assay [1] (setting [3]) lay within 25 to 50%; in assay [2] (setting [4]), 1 to 25%; on KRas Q61H mutant (setting [5]), 25 to 50%.
Take `Cn1cnc(-c2nc(O)c3c(-c4ccccc4)c(-c4ccc(CNC(=O)OC(C)(C)C)cc4)sc3n2)c1` [drawing 3537]: the inhibition at 20 µM (in assay [1] (setting [6]); in assay [2] (setting [7]); at KRas Q61H mutant (setting [8])) was 1 to 25% in each case.
Take `Oc1nc(-c2ccccn2)nc2c(-c3cnc4ccccc4c3)csc12` [drawing 3462]: the inhibition at 20 µM in assay [1] (setting [6]) lay within 25 to 50%; in assay [2] (setting [7]) it was 25 to 50%; at KRas Q61H mutant (setting [8]) it was 51 to 75%.
For the compound `Cc1sc2c(N)nc(-c3ccccn3)nc2c1-c1ccccc1` [drawing 2837], the inhibition at 20 µM in assay [1] (setting [3]) lay in the range of 1 to 25%; in assay [2] (setting [4]), 25 to 50%; at KRas Q61H mutant (setting [5]), 1 to 25%.
Take `COCCN(CCOC)c1nc(-c2ccccn2)nc2scc(C(=O)NCCc3ccc(OC)nc3)c12` [drawing 2792]: the inhibition at 20 µM lay within 1 to 25% in assay [1] (setting [3]), 1 to 25% in assay [2] (setting [4]) and 25 to 50% at KRas Q61H mutant (setting [5]).
On to `Oc1nc(-c2ccccn2)nc2c(-c3ccnn3-c3ccccn3)csc12` [drawing 2904], for which the inhibition at 20 µM is 25 to 50% in assay [1] (setting [3]), 1 to 25% in assay [2] (setting [4]) and 25 to 50% on KRas Q61H mutant (setting [5]).
As to `CN(CCc1cccc(C#N)c1)C(=O)c1csc2nc(-c3ccccn3)nc(N3CCOCC3)c12` [drawing 2788], the inhibition at 20 µM in assay [1] (setting [3]) fell in the range of 51 to 75%; in assay [2] (setting [4]) it was 1 to 25%; on KRas Q61H mutant (setting [5]), 51 to 75%.
As to `Cc1sc2c(N)nc(-c3ccccn3)nc2c1Br` [drawing 2893], the inhibition at 20 µM in assay [1] (setting [3]) was 25 to 50%; in assay [2] (setting [4]), 25 to 50%; at KRas Q61H mutant (setting [5]) it was 1 to 25%.
